# Structures can show the parent of a compound that is named as a salt.
# Legend:
# [1] = molecular target: T1, human α5β3γ2L GABAA receptors in HEK293 cells (Homo sapiens, UniProt P18507+P31644); experiment: In vitro electrophysiological recording assay (α5-GABAAR relative efficacy), SyncroPatch; type: cell-based; conditions: Conc 0.1 μM; GABA EC10-20
# T1 construct: expressed in transfected cells
# How it was run: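 HEK293 cells stably expressing the receptor, automated whole-cell patch clamp at −80 mV, room temperature (20-22° C). Compound pre-incubated 1-2 min, then co-applied with GABA EC10-20; % change in peak current vs GABA alone (leak-subtracted). Tested generally at ≥100× Ki and normalised to DMCM efficacy as relative efficacy.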
# [2] = molecular target: T2, human α5β3γ2 GABAARs in mouse L(tk−) cells (Homo sapiens, UniProt P18507+P31644); experiment: In vitro electrophysiological recording assay (α5-GABAAR relative efficacy), QPatch; type: cell-based; conditions: GABA EC10-20
# T2 construct: expressed in transfected cells; host or cells: mouse L(tk−) cells, dexamethasone-inducible vector pMSGneo
# How it was run: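 Whole-cell QPatch recordings at 20-22° C, −65 mV holding, in dexamethasone-induced (1 μM, 24 h) L(tk−) cells. Compound pre-applied ≥1 min, then co-applied with GABA EC10-20; percentage change in leak-corrected peak current, taken at ≥100× Ki, normalised to DMCM efficacy; 0.1% DMSO final.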
# [3] = molecular target: T3, human recombinant GABAAR containing α5β3γ2 subunits (benzodiazepine site) (Homo sapiens, UniProt P18507+P31644); experiment: In vitro radioligand binding assay (α5-GABAAR Ki); conditions: inhibition of [3H]Ro15-1788 binding, membranes of L(tk−) cells expressing human α5β3γ2; read-out: α5-GABAAR Ki
# T3 construct: expressed in transfected cells; host or cells: mouse L(tk−) cells, dexamethasone-inducible vector pMSGneo
# How it was run: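 Membranes from mouse L(tk^−) cells stably expressing human α5β3γ2 GABAAR incubated 1 h at 4° C with 4 nM [^3H]Ro15-1788 and test compound; nonspecific binding with 1 μM TP003. Filter-bound radioactivity counted; Ki from IC50 by Cheng-Prusoff using measured Kd.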
# [4] = tested on: mouse hippocampal brain slices (LTP suppressed by etomidate); experiment: Electrophysiology in hippocampal slices - long term potentiation assay
# T3 sequence (P31644 32-462): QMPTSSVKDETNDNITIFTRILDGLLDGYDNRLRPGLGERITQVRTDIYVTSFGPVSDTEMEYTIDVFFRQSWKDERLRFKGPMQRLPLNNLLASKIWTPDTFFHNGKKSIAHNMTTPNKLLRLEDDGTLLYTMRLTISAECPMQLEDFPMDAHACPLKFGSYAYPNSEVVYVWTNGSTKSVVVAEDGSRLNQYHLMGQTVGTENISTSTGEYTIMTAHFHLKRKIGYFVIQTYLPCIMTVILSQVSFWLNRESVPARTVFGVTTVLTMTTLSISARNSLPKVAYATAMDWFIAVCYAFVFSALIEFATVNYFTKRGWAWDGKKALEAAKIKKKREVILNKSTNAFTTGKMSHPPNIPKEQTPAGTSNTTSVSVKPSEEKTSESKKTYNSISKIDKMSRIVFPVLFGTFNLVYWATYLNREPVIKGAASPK
# T3 sequence (P28472 26-473 partner): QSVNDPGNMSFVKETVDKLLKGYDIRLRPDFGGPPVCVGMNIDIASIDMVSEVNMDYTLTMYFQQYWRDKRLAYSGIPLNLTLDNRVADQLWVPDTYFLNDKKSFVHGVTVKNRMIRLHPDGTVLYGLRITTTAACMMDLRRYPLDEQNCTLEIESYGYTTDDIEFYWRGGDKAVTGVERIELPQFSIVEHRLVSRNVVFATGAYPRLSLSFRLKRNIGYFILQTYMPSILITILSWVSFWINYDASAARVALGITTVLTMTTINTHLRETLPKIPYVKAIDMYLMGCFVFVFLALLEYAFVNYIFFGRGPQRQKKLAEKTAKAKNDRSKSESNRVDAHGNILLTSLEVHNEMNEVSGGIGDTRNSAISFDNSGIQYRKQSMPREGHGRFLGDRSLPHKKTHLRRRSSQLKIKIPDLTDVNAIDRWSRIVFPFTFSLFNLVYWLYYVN
# T3 sequence (P18507 40-475): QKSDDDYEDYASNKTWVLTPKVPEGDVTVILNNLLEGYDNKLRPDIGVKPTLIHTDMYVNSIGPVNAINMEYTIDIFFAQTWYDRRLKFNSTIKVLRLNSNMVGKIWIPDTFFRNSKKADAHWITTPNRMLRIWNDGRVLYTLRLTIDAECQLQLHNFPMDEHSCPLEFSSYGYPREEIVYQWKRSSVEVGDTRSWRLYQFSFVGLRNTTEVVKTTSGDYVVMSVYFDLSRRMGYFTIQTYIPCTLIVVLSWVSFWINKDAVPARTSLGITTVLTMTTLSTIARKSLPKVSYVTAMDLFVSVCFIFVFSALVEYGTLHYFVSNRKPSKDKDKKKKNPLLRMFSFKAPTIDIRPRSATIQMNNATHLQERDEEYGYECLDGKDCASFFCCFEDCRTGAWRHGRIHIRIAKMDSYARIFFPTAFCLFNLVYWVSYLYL
# T1 sequence (P31644 32-462): as the sequence (P31644 32-462) above
# T1 sequence (P28472 26-473 partner): as the sequence (P28472 26-473 partner) above
# T1 sequence (P18507 40-475): as the sequence (P18507 40-475) above
# T2 sequence (P31644 32-462): as the sequence (P31644 32-462) above
# T2 sequence (P28472 26-473 partner): as the sequence (P28472 26-473 partner) above
# T2 sequence (P18507 40-475): as the sequence (P18507 40-475) above
SMILES,"α5-GABAAR Relative Efficacy (to DMCM), SyncroPatch [1]","α5-GABAAR Relative Efficacy (to DMCM), Qpatch ([2]; Conc 1 μM)",Ki [3] [nM],"α5-GABAAR Relative Efficacy (to DMCM), Qpatch ([2]; Conc 0.1 μM)","α5-GABAAR Relative Efficacy (to DMCM), Qpatch ([2]; Conc 3 μM)","α5-GABAAR Relative Efficacy (to DMCM), Qpatch ([2]; Conc 0.3 μM)","magnitude of LTP (fEPSP slope as % of control fEPSPs prior to 4-TBS vs time) ([4]; etomidate 3 μM alone, n=17, FIG. 2A)","fEPSP slope at 50-60 min post-delivery of the 4-TBS ([4]; etomidate alone compared to control, FIG. 2B)"
"COc1nc(-c2cnc(CN)nc2)ccc1NC(=O)c1c(-c2ccccc2)nnn1C.Cl [Example 180, N-(6-(2-(Aminomethyl)pyrimidin-5-yl)-2-methoxypyridin-3-yl)-1-methyl-4-phenyl-1H-1,2,3-triazole-5-carboxamide hydrochloride]",−0.48,−0.63,3.9,,,,,
"COc1nc(-c2cnc(CN)nc2)ccc1NC(=O)c1c(-c2ccc(F)cc2)noc1C.Cl [Example 185, N-[6-[2-(Aminomethyl)pyrimidin-5-yl]-2-methoxy-3-pyridyl]-3-(4-fluorophenyl)-5-methyl-isoxazole-4-carboxamide hydrochloride]",−1.23,,0.5,−0.79,,,,
"COc1nc(-c2cnc(OC3CNC3)nc2)ccc1NC(=O)c1c(-c2ccccc2)noc1C [Example 189, N-[6-[2-(Azetidin-3-yloxy)pyrimidin-5-yl]-2-methoxy-3-pyridyl]-5-methyl-3-phenyl-isoxazole-4-carboxamide]",−0.72,,0.7,−0.70,,,,
"CNCc1ccc(-c2ccc(NC(=O)c3c(-c4ccccc4)noc3C)c(OC)n2)cn1 [Example 190, N-[2-Methoxy-6-[6-(methylaminomethyl)-3-pyridyl]-3-pyridyl]-5-methyl-3-phenyl-isoxazole-4-carboxamide]",−0.72,,1.1,−0.59,,,,
"COc1nc(-c2nnc3n2CCNC3)ccc1NC(=O)c1c(-c2ccccc2)noc1C [Example 196, N-(2-Methoxy-6-(5,6,7,8-tetrahydro-[1,2,4]triazolo[4,3-a]pyrazin-3-yl)pyridin-3-yl)-5-methyl-3-phenylisoxazole-4-carboxamide dihydrochloride]",−0.68,,23.5,,−0.71,,,
"COc1nc(-c2ccc(CN)nc2)ccc1NC(=O)c1c(-c2ccccc2)noc1C.Cl [Example 199, N-[6-[6-(Aminomethyl)-3-pyridyl]-2-methoxy-3-pyridyl]-5-methyl-3-phenyl-isoxazole-4-carboxamide hydrochloride]",−0.93,,1.6,,,−0.82,,
"Cc1onc(-c2ccccc2)c1C(=O)Nc1ccc(-n2ccnc2)nc1OC(C)C [Example 206, N-(6-(1H-Imidazol-1-yl)-2-isopropoxypyridin-3-yl)-5-methyl-3-phenylisoxazole-4-carboxamide]",−1.03,,1.7,,,−0.55,,
"Cc1onc(-c2ccccc2)c1C(=O)Nc1ccc(-c2cnc(CN)nc2)nc1OC(C)C [Example 207, N-(6-(2-(Aminomethyl)pyrimidin-5-yl)-2-isopropoxypyridin-3-yl)-5-methyl-3-phenylisoxazole-4-carboxamide hydrochloride]",−0.83,,0.3,−0.56,,,,
"Cc1onc(-c2ccc(F)cc2)c1C(=O)Nc1ccc(-c2cnc3n2CCNC3)nc1OC(C)C.Cl [Example 208, 3-(4-Fluorophenyl)-N-(2-isopropoxy-6-(5,6,7,8-tetrahydroimidazo[1,2-a]pyrazin-3-yl)pyridin-3-yl)-5-methylisoxazole-4-carboxamide hydrochloride]",−0.70,,0.7,−0.38,,,,
"CCOC(=O)c1cncn1[C@H](C)c1ccccc1 [etomidate, reference compound]",,,,,,,reduced,significantly reduced fEPSP slope
